Patent US20250090550A1, “INJECTABLE COMPOSITION COMPRISING CYTOLYTIC COMPOUND IN GEL, GEL-FORMING SOLUTION OR GEL-FORMING SUSPENSION FOR REDUCTION OF FAT” (GLONOVA PHARMA CO., LTD., priority 2022, published 2025)
Structures can show the parent of a compound that is named as a salt.

Assays:
fat tissue = conditions: after injection of deoxycholic acid solution; cited from earlier work
[1] = Gel formation of mixtures added to 0.9% saline, placed at 37° C.; type: physicochemical
Procedure: In the following examples, DCA-Na solutions were mixed with other components to prepare an injectable composition. Unless otherwise stated, the requirements for the final concentration of DCA-Na in the obtained compositions were ≥70% of initial solutions (≥36.96 mg/mL for 5% solution, ≥7.39 mg/mL for 1% solution). The appearances after mixing DCA-Na with other components were observed after placing at 25, 37 and 42° C. for 20, 30, 45, 60 and 120 minutes. 200 μL of the mixtures were also added to 200 μL 0.9% saline respectively and their appearances were also observed after placing at 37° C. for 20, 30, 45, 60 and 120 minutes. Photos were taken and showing in the figures.

SMILES | permeation into fat tissue after injection (fat tissue) | suitable concentration of lidocaine HCl mixing with 1% DCA-Na solution ([1]; mixtures of 1% DCA-Na and LA + lidocaine HCl) | tolerable concentration of lidocaine HCl mixing with 5% DCA-Na solution ([1]; mixtures of 5% DCA-Na and LA in lidocaine HCl)
C[C@H](CCC(=O)O)[C@H]1CC[C@H]2[C@@H]3CC[C@@H]4C[C@H](O)CC[C@]4(C)[C@H]3C[C@H](O)[C@]12C [deoxycholic acid, Deoxycholic acid] | more than 1 centimeter | – | –
CCN(CC)CC(=O)Nc1c(C)cccc1C [lidocaine HCl] | – | around 3 mg/mL | up to 6 mg/mL
